Common to all, as to format: functional
Assay [1] has as its system Rattus norvegicus. Description: Antiinflammatory activity in Wistar albino rat assessed as carrageenan-induced paw edema at 50 mg/kg, po administered 30 mins prior to carrageenan-challenge measured after 1 hr relative to control. A general note: In the carrageenan paw model, swelling and tenderness develop within hours.
Assay [2] relates to Rattus norvegicus. The assay is described as follows: Antiinflammatory activity in Wistar albino rat assessed as carrageenan-induced paw edema at 50 mg/kg, po administered 30 mins prior to carrageenan-challenge measured after 2 hrs relative to control.
The test system of assay [3] is Rattus norvegicus. Description: Antiinflammatory activity in Wistar albino rat assessed as carrageenan-induced paw edema at 50 mg/kg, po administered 30 mins prior to carrageenan-challenge measured after 3 hrs relative to control. The following applies: read-out: INH.
Assay [4] concerns Rattus norvegicus. The assay is described as follows: Antiinflammatory activity in Wistar albino rat assessed as carrageenan-induced paw edema at 50 mg/kg, ip administered 30 mins prior to carrageenan-challenge measured after 1 hr relative to control. The following applies: route intraperitoneal.
The test system of assay [5] is Rattus norvegicus. The assay is described as follows: Antiinflammatory activity in Wistar albino rat assessed as carrageenan-induced paw edema at 50 mg/kg, ip administered 30 mins prior to carrageenan-challenge measured after 3 hrs relative to control. The settings on record: route intraperitoneal.
Assay [6] has as its system Rattus norvegicus. The assay is described as follows: Antiinflammatory activity in Wistar albino rat assessed as carrageenan-induced paw edema at 50 mg/kg, ip administered 30 mins prior to carrageenan-challenge measured after 2 hrs relative to control. The settings on record: route intraperitoneal.

This note sets out measurements from ChEMBL document CHEMBL3046286, “4-Fluorophenylhydrazones as potential COX-2 inhibitors: a novel, efficient, one pot solid phase synthesis, docking study and pharmacological evaluation” (2013).

As for `O=C(c1cccs1)C(NNc1ccc(F)cc1)C(=O)C(F)(F)F` (stereo not drawn), the inhibition in vivo at 50 mg/kg turned out to be 4.11% in assay [1], 7.93% in assay [2] and 17.4% in assay [3].
As to `O=C(O)Cc1ccccc1Nc1c(Cl)cccc1Cl` [DICLOFENAC SODIUM], the inhibition in vivo at 50 mg/kg in assay [4] turned out to be 20.1%; in assay [5], 46.8%; in assay [6], 30.4%.
As to `COc1ccc(C(=O)C(NNc2ccc(F)cc2)C(=O)C(F)(F)F)cc1` (stereo not drawn), the inhibition in vivo at 50 mg/kg in assay [1] amounted to 15.4%; in assay [2], 26.6%; in assay [3] it was 40.6%.
The like results for `O=C(c1ccc([N+](=O)[O-])cc1)C(NNc1ccc(F)cc1)C(=O)C(F)(F)F` (stereo not drawn) were, in that order, 5.05%, 8.86% and 18.2%.
For `O=C(c1ccc(Br)cc1)C(NNc1ccc(F)cc1)C(=O)C(F)(F)F` (stereo not drawn), the inhibition in vivo at 50 mg/kg came to 17.3% in assay [1], 30.4% in assay [2] and 43.2% in assay [3].
Taken in the same sequence, the figures for `O=C(c1ccc(F)cc1)C(NNc1ccc(F)cc1)C(=O)C(F)(F)F` (stereo not drawn) were 18.3%, 28.5% and 42.4%.
